How the values were obtained:
[1] = test system: lambsquarters; assay: Test B pre-/postemergence herbicide test; assay type: in vivo, Chenopodium album; settings: for Lambsquarters plant response rating: postemergence
In short: (§1)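 Response was scored visually 13 to 15 days after treatment against untreated greenhouse controls, 0 meaning no effect and 100 complete control. Formulations (solvent mixture plus surfactant) went onto soil after planting, onto foliage of 1- to 4-leaf plants, and onto 2-leaf plants in a flooded paddy set including rice and barnyardgrass.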

[2] = test system: large crabgrass; assay: Test B pre-/postemergence herbicide test; assay type: in vivo, Digitaria sanguinalis; settings: for Crabgrass, Large plant response rating: postemergence
In short: as §1

[3] = test system: wheat; assay: Test B postemergence herbicide test; assay type: in vivo, Triticum aestivum; parameters: key to Wheat plant response rating: 0 = no effect, 100 = complete control; settings: postemergence
In short: (§2)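 After treating 2-leaf paddy plants or 2–18 cm postemergence plants (1 to 4 leaves) with formulated chemical, researchers kept them in a greenhouse for 13–15 days. Effects were judged visually versus controls: 0 indicates none, 100 total control.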

[4] = test system: morningglory; assay: Test B pre-/postemergence herbicide test; assay type: in vivo, Ipomoea coccinea; settings: for Morningglory plant response rating: postemergence
In short: (§3)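 Visual rating, 0 (no effect) to 100 (complete control), versus untreated controls after 13–15 d in greenhouse. Pre- and postemergence applications (postemergence plants 2–18 cm, 1–4 leaves); flooded paddy arm at 2-leaf stage. Compounds in non-phytotoxic solvent plus surfactant.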

[5] = test system: velvetleaf; assay: Test B pre-/postemergence herbicide test; assay type: in vivo, Abutilon theophrasti; settings: for Velvetleaf plant response rating: postemergence
In short: as §1

[6] = test system: giant foxtail; assay: Test B pre-/postemergence herbicide test; assay type: in vivo, Setaria faberi; settings: for Foxtail, Giant plant response rating: postemergence
In short: as §1

[7] = test system: Surinam grass; assay: Test B pre-/postemergence herbicide test; assay type: in vivo, Urochloa decumbens; settings: for Surinam Grass plant response rating: postemergence
In short: as §1

[8] = test system: corn; assay: Test B pre-/postemergence herbicide test; assay type: in vivo, Zea mays; settings: for Corn plant response rating: postemergence
In short: as §1

[9] = test system: rice; assay: Test B flooded paddy test; assay type: in vivo, Oryza sativa; settings: 1000 g ai/ha, scale 0 to 100 (0 no effect, 100 complete control)
In short: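 Postemergence plants were sprayed with formulated test chemicals at 2 to 18 cm height (1- to 4-leaf stage); paddy species were grown to the 2-leaf stage. After 13 to 15 days in a greenhouse, injury was rated visually against untreated controls on a 0–100 scale (0 = no effect, 100 = complete control).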

[10] = test system: small flower umbrella sedge; assay: Test B flooded paddy test; assay type: in vivo, Cyperus difformis; settings: 1000 g ai/ha, scale 0 to 100 (0 no effect, 100 complete control)
In short: (§4)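 Visual ratings, 0 (no effect) to 100 (complete control), made versus controls after 13–15 d greenhouse. Paddy plants treated at 2-leaf stage; postemergence plants at 1- to 4-leaf stage, 2–18 cm tall.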

[11] = test system: wild oat; assay: Test B postemergence herbicide test; assay type: in vivo, Avena fatua; settings: postemergence
In short: as §2

[12] = test system: barnyardgrass; assay: Test B flooded paddy test; assay type: in vivo, Echinochloa crus-galli; settings: 1000 g ai/ha, scale 0 to 100 (0 no effect, 100 complete control)
In short: as §4

[13] = test system: cocklebur; assay: Test B pre-/postemergence herbicide test; assay type: in vivo, Xanthium strumarium; settings: for Cocklebur plant response rating: postemergence
In short: as §3

[14] = test system: barnyardgrass; assay: Test B pre-/postemergence herbicide test; assay type: in vivo, Echinochloa crus-galli; settings: for Barnyardgrass plant response rating: postemergence
In short: as §3

[15] = test system: pigweed; assay: Test B pre-/postemergence herbicide test; assay type: in vivo, Amaranthus retroflexus; settings: for Pigweed plant response rating: postemergence
In short: as §1

[16] = 125 g ai/ha, 0 = no effect, 100 = complete control, preemergence
[17] = 125 g ai/ha, visual rating, scale 0 (no effect) to 100 (complete control)
[18] = 500 g ai/ha, visual rating, 0 = no effect, 100 = complete control, preemergence
[19] = 500 g ai/ha, scale 0 to 100, 0 is no effect, 100 is complete control

CCn1nc(C(C)(C)C)cc1C(=O)Nc1cc(C(=S)N(C)C)ccc1F [Compound 294]
10: Crabgrass, Large plant response rating [2, 17] | Morningglory plant response rating [4, 17] | Corn plant response rating [8, 17]
40: Wheat plant response rating [3, 19] | Velvetleaf plant response rating [5, 17] | Surinam Grass plant response rating [7, 19] | Oat, Wild plant response rating [11, 17]
70: Lambsquarters plant response rating [1, 17] | Pigweed plant response rating [15, 19]
0: Morningglory plant response rating (0 to 100 scale) [4, 16]
80: Lambsquarters plant response rating [1, 19] | Velvetleaf plant response rating [5, 19] | Corn plant response rating (0 to 100 scale) [8, 16] | Sedge, Umbrella plant response rating [10]
100: Lambsquarters plant response rating (0 to 100 scale) [1, 16] | Plant response rating, Lambsquarters [1, 18] | Crabgrass, Large plant response rating (0 to 100 scale) [2, 16] | Plant response rating, Crabgrass, Large [2, 18] | Plant response rating, Velvetleaf [5, 18] | Plant response rating, Foxtail, Giant [6, 18] | Surinam Grass plant response rating (0 to 100 scale) [7, 16] | Plant response rating, Surinam Grass [7, 18] | Plant response rating, Corn [8, 18] | Plant response rating, Cocklebur [13, 18] | Barnyardgrass plant response rating (0 to 100 scale) [14, 16] | Plant response rating, Barnyardgrass [14, 18] | Pigweed plant response rating (0 to 100 scale) [15, 16] | Plant response rating, Pigweed [15, 18]
30: Wheat plant response rating [3, 17] | Foxtail, Giant plant response rating [6, 17] | Cocklebur plant response rating [13, 17] | Cocklebur plant response rating [13, 19] | Pigweed plant response rating [15, 17]
50: Foxtail, Giant plant response rating [6, 19] | Corn plant response rating [8, 19] | Oat, Wild plant response rating [11, 19]
60: Barnyardgrass plant response rating [14, 19]
20: Crabgrass, Large plant response rating [2, 19] | Plant response rating, Morningglory [4, 18] | Morningglory plant response rating [4, 19] | Surinam Grass plant response rating [7, 17] | Barnyardgrass plant response rating [14, 17]
90: Foxtail, Giant plant response rating (0 to 100 scale) [6, 16] | Rice plant response rating [9] | Barnyardgrass plant response rating [12] | Cocklebur plant response rating (0 to 100 scale) [13, 16]
